# Assay results taken from patent US10059674B2, “Design, synthesis, and biological evaluation of 1-methyl-1, 4-dihyrdoindeno[1,2-C]pyrazole analogues as potential anticaner agents targeting tubulin colchicine binding site” (ACT PHARMA CO., LTD., priority 2016, dated 2018).
# Like-named read-outs stand apart in the source and are kept apart here.
# Legend:
# [1] = rat, microsomes, 1 µM, pH 7.47
# [2] = monkey, microsomes, 1 µM, pH 7.47
# [3] = in vitro; conditions: monkey, microsomes, pH 7.47
# [4] = test system: tubulin; assay: Tubulin polymerization experiment (Cytoskeleton Tubulin Polymerization Assay Kit); format: biochemical
# Method: The tubulin polymerization experiment is carried out according to the specifications of Tubulin Polymerization Assay Kit of Cytoskeleton Corporation.
# [5] = in vitro; conditions: dog, microsomes, pH 7.47
# [6] = human, microsomes, 1 µM, pH 7.47
# [7] = Liver microsomal metabolism stability test; conditions: for Remainder: mouse liver microsomes
# [8] = dog, microsomes, 1 µM, pH 7.47
smiles,measurement,setting,value
CCOc1cccc(Nc2nn(C)c3c2Cc2cc(OCC)c(OCC(N)=O)cc2-3)c1 [LL-01],Remainder,[1]; 0 h,100.00%
same,Remainder,[1]; 10 min,87.70%
same,Remainder,[1]; 0.5 h,68.13%
same,Remainder,[1]; 1.5 h,33.19%
same,Remainder,[2]; 0 h,100.00%
same,Remainder,[2]; 10 min,52.00%
same,Remainder,[2]; 0.5 h,20.40%
same,Remainder,[2]; 1.5 h,4.76%
same,half-life at 1 µM,[3],21.6 min
same,microsomal CLint at 1 µM,[3],64.2 µL/min/mg
same,inhibition of tubulin polymerization (in words),[4]; FIGS. 1 and 2,able to inhibit tubulin polymerization
same,IC50,[4]; read-out: tubulin polymerization inhibiting IC50,4.62 µM
same,half-life at 1 µM,[5],24.7 min
same,microsomal CLint at 1 µM,[5],56 µL/min/mg
same,Remainder,[6]; 0 h,100.00%
same,Remainder,[6]; 10 min,78.76%
same,Remainder,[6]; 0.5 h,56.18%
same,Remainder,[6]; 1.5 h,23.87%
same,metabolism in the liver microsomes (in words),[7]; mouse,moderate
same,Remainder,[7]; incubation time 0 min,100.00%
same,Remainder,[7]; incubation time 10 min,87.76%
same,Remainder,[7]; incubation time 30 min,63.76%
same,Remainder,[7]; incubation time 90 min,32.23%
same,Remainder,[8]; 0 h,100.00%
same,Remainder,[8]; 10 min,74.20%
same,Remainder,[8]; 0.5 h,38.61%
same,Remainder,[8]; 1.5 h,7.93%
